{"source": "patent US20240293367A1", "about": "“METHODS OF TREATING DISORDERS WITH A […]” (Cybin IRL Limited, priority 2023, published 2024)", "key": {"[1]": {"experiment": "Clinical PD of psilocin after psilocybin (VAS-Any drug effect, MEQ30, 5D-ASC versus psilocin Cmax)", "type": "in vivo, human", "source_text": "To evaluate potential psychedelic effects at various doses of psilocin-d10, data were summarized/modeled from published literature for psilocin after psilocybin administration.\nFirst, the VAS—Any drug effect score was modeled based on data from Holze et al. 2022 using a linear effect relationship to determine psilocin plasma concentrations in which a VAS—Any drug effect score of 20, 40, 60, and 80 mm was reached. This relationship is presented graphically in FIG. 4, based on the extraction of mean PK and PD data from the figures in Holze et al. 2022. Here, a linear concentration-effect relationship was identified with no evidence of hysteresis. As is evident from this modeled linear concentration-effect relationship according to Holze et al. 2022 (y=0.17+3.9x), a psilocin plasma concentration of about 15.34 ng/ml is the predicted amount required to achieve VAS-Any drug effect scores above 60 mm, a psilocin plasma concentration of about 17.9 ng/ml is the predicted amount required to achieve VAS-Any drug effect scores above 70 mm, and a psilocin plasma concentration of about 20.47 ng/ml is the predicted amount required to achieve a VAS-Any drug effect score of 80 mm.\nThis modeled relationship between psilocin plasma concentration and VAS-Any drug effect score is also in agreement with reported literature studies relating plasma psilocin concentrations (μg/L) to neocortical serotonin 5-HT2A receptor occupancy % and subjective intensity of the psychedelic experience (see Madsen MK, Fisher PM, Burmester D, et al (2019). Psychedelic effects of psilocybin correlate with serotonin 2A receptor occupancy and plasma psilocin levels. Neuropsychopharmacology, 44:1328-34), albeit the Madsen et al. study uses a VAS scoring system related specifically to psychedelic effects. The psilocin concentrations needed to reach the plateau in receptor occupancy and the required VAS scores (psychedelic effects) can be seen graphically in FIG. 5 and FIGS. 6A-6B, which are reproduced from Madsen et al. 2019 (FIGS. 3 and 4, respectively, in Madsen et al. 2019). […]"}, "[2]": {"experiment": "28-day (4-week GLP) toxicology study in dogs, toxicokinetic exposure", "conditions": "dog, in vivo, 0.5 mg/kg; internal 4-week GLP toxicology study; read-out: Dog Cmax at 0.5 mg/kg", "source_text": "The exposure limits will be applied on mean values within a cohort."}, "[3]": {"conditions": "psilocin after psilocybin, Studerus et al. 2011; cited from earlier work"}, "[4]": {"conditions": "female, rat, in vivo, 40 mg/kg"}, "MDD patients": {"system": "MDD patients", "conditions": "cited from earlier work; for placebo subtracted difference in LSM change from baseline on MADRS score: adjunctive to antidepressants; for placebo subtracted difference in (LSM) change from baseline MADRS total score: pivotal clinical studies, package inserts"}, "[5]": {"conditions": "linear model of Holze et al. 2022 data"}}, "note": "Counter-ions that a name gives are not always drawn. Like-named read-outs stand apart in the source and are kept apart here."}
{"smiles": "CN(C)CCc1c[nH]c2cccc(O)c12", "note": "[psilocin, 4-hydroxy-N,N-dimethyltryptamine]", "values": [{"measurement": "psilocin plasma concentration predicted for VAS-Any drug effect scores above 70 mm", "setting": "[1]; linear concentration-effect model", "result": "about 17.9 ng/ml"}, {"measurement": "psilocin Cmax / plasma concentration for VAS - Any drug effect: 20", "setting": "[1]; [5]", "result": 0.00508, "unit": "µg/mL"}, {"measurement": "psilocin Cmax / plasma concentration for VAS - Any drug effect: 40", "setting": "[1]; [5]", "result": 0.0102, "unit": "µg/mL"}, {"measurement": "Cmax", "setting": "[2]", "result": 0.0517, "unit": "µg/mL"}, {"measurement": "psilocin Cmax with no change in list of complaints + 5D-ASC", "setting": "[3]", "result": 0.00183, "unit": "µg/mL"}, {"measurement": "Cmax", "setting": "[4]", "result": 0.343, "unit": "µg/mL"}]}
{"smiles": "CN(C)C(=O)N[C@H]1CC[C@H](CCN2CCN(c3cccc(Cl)c3Cl)CC2)CC1", "note": "[cariprazine]", "values": [{"measurement": "placebo subtracted difference in LSM change from baseline on MADRS score", "setting": "MDD patients; 1.5 mg/day fixed dose, 95% CI: −4.2, −0.9", "result": "−2.5"}, {"measurement": "placebo subtracted difference in LSM change from baseline on MADRS score", "setting": "MDD patients; flexible doses of 2-4.5 mg/day, 95% CI: −3.7, −0.6", "result": "−2.2"}, {"measurement": "placebo subtracted difference in (LSM) change from baseline MADRS total score", "setting": "MDD patients", "result": "−2.2 to −2.5"}]}
{"smiles": "N#Cc1ccc2[nH]cc(CCCCN3CCN(c4ccc5oc(C(N)=O)cc5c4)CC3)c2c1", "note": "[vilazodone hydrochloride]", "values": [{"measurement": "placebo subtracted difference in (LSM) change from baseline MADRS total score", "setting": "MDD patients", "result": "−2.5 to −5.1"}]}
{"smiles": "CCN(CC)C(=O)[C@@]1(c2ccccc2)C[C@H]1CN", "note": "[levomilnacipram]", "values": [{"measurement": "placebo subtracted difference in (LSM) change from baseline MADRS total score", "setting": "MDD patients", "result": "−3.1 to −4.9"}]}
{"smiles": "Cc1ccc(Sc2ccccc2N2CCNCC2)c(C)c1", "note": "[vortioxetine]", "values": [{"measurement": "difference in mean change from baseline of MADRS scores between placebo and drug", "setting": "MDD patients; 20 mg, meta-analysis of 11 placebo-controlled trials", "result": 4.57}, {"measurement": "placebo subtracted difference in (LSM) change from baseline MADRS total score", "setting": "MDD patients", "result": "−2.8 to −5.9"}]}
{"smiles": "CN(C)CCc1c[nH]c2ccccc12", "note": "[N,N-dimethyltryptamine (DMT), N,N-dimethyltryptamine]", "values": [{"measurement": "MADRS CFB reduction over placebo", "setting": "MDD patients; intravenous, two-weeks postdose, Small Pharma press release", "result": "−7.4"}]}
